Test results: ChEMBL document CHEMBL4823285, “Synthesis and evaluation of antimycobacterial activity of riboflavin derivatives” (Bioorg Med Chem Lett, 2021)
Converted amounts (≈) assume the structure as drawn. The source made the active and inactive calls. The rule behind the calls is not given here.

How the values were obtained:
THP-1 = assay: Cytotoxicity against human THP-1 cells assessed as cell viability measured after 96 hrs by MTT assay; format: cell-based; settings: THP-1, 96 h
[1] = Selectivity index, ratio of MIC99 for Mycobacterium tuberculosis H37Rv to IC50 for human THP-1 cells; format: functional
[2] = tested on: Mycobacterium tuberculosis; assay: Antimycobacterial activity against Mycobacterium tuberculosis H37Rv assessed as inhibition of visible growth […]; format: functional
Bacillus subtilis [3] = assay: Antibacterial activity against Bacillus subtilis assessed as inhibition of bacterial growth at 100 to 200 uM; format: functional; settings: dose 100-200 µM
Staphylococcus aureus [4] = assay: Antibacterial activity against Staphylococcus aureus assessed as inhibition of bacterial growth at 100 to 200 uM; format: functional; settings: dose 100-200 µM
FMN riboswitch = assay: Binding affinity to Lactobacillus plantarum NCDO 1752 FMN riboswitch at 150 nM measured by fluorescence assay; format: nucleic-acid assay; settings: Lactiplantibacillus plantarum
Staphylococcus aureus [5] = assay: Antibacterial activity against Staphylococcus aureus assessed as inhibition of bacterial growth; format: functional
Bacillus subtilis [6] = assay: Antibacterial activity against Bacillus subtilis assessed as inhibition of bacterial growth; format: functional

Structure (SMILES)	IC50 (THP-1)	Selectivity Index [1]	MIC99 [2]	inhibition (INH) (Bacillus subtilis [3])	inhibition (INH) (Staphylococcus aureus [4])	Kb (FMN riboswitch)	inhibition (Staphylococcus aureus [5])	inhibition (Bacillus subtilis [6])	MIC (Staphylococcus aureus [5])	MIC (Bacillus subtilis [6])
CCCCCC(=O)OC[C@H](OC(=O)CCCCC)[C@H](OC(=O)CCCCC)[C@@H](Cn1c2nc(=O)[nH]c(=O)c-2nc2cc(C)c(C)cc21)OC(=O)CCCCC	> 50 µM	>1	50 µM (≈ 38.4 µg/mL)							
Cc1cc2nc3c(=O)[nH]c(=O)nc-3n(CCO)c2cc1C	> 50 µM	1	> 50 µM							
NNC(=O)c1ccncc1 [ISONIAZID]	100 µM		0.78 µM (≈ 0.107 µg/mL)							
CCCCCCCCCCCC(=O)OC[C@H](O)[C@H](O)[C@H](O)Cn1c2nc(=O)[nH]c(=O)c-2nc2cc(C)c(C)cc21	50 µM	1	> 50 µM							
CCCCCCCCCCCC(=O)OC[C@H](OC(=O)CCCCCCCCCCC)[C@H](O)[C@H](O)Cn1c2nc(=O)[nH]c(=O)c-2nc2cc(C)c(C)cc21	25 µM	<0.5	> 50 µM							
CCCC(=O)OC[C@H](OC(=O)CCC)[C@H](O)[C@H](O)Cn1c2nc(=O)[nH]c(=O)c-2nc2cc(C)c(C)cc21	> 100 µM	>4	25 µM (≈ 12.9 µg/mL)	>90%	>90%					
CCCC(=O)OC[C@H](OC(=O)CCC)[C@H](OC(=O)CCC)[C@H](O)Cn1c2nc(=O)[nH]c(=O)c-2nc2cc(C)c(C)cc21	> 100 µM	>2	50 µM (≈ 29.3 µg/mL)	>90%	>90%					
CC(=O)OC[C@H](OC(C)=O)[C@H](OC(C)=O)[C@@H](Cn1c2nc(=O)[nH]c(=O)c-2nc2cc(C)c(C)cc21)OC(C)=O	25 µM	1	25 µM (≈ 13.6 µg/mL)							
Cc1cc2nc3c(=O)[nH]c(=O)nc-3n(CC(O)O)c2cc1C	> 100 µM	>10.7	6.25 µM (≈ 1.89 µg/mL)			5.42 10^5/M				
CCCCCCCCCCCC(=O)OC[C@H](OC(=O)CCCCCCCCCCC)[C@H](OC(=O)CCCCCCCCCCC)[C@H](O)Cn1c2nc(=O)[nH]c(=O)c-2nc2cc(C)c(C)cc21	50 µM	1	> 50 µM				Active	Active		
CCCCCCCCCCCC(=O)OC[C@H](OC(=O)CCCCCCCCCCC)[C@H](OC(=O)CCCCCCCCCCC)[C@@H](Cn1c2nc(=O)[nH]c(=O)c-2nc2cc(C)c(C)cc21)OC(=O)CCCCCCCCCCC	> 50 µM	1	> 50 µM						100 µM (≈ 111 µg/mL)	100 µM (≈ 111 µg/mL)
CCCC(=O)OC[C@H](OC(=O)CCC)[C@H](OC(=O)CCC)[C@@H](Cn1c2nc(=O)[nH]c(=O)c-2nc2cc(C)c(C)cc21)OC(=O)CCC	100 µM	2	50 µM (≈ 32.8 µg/mL)	>90%	>90%					
CCCCCC(=O)OC[C@H](OC(=O)CCCCC)[C@H](OC(=O)CCCCC)[C@H](O)Cn1c2nc(=O)[nH]c(=O)c-2nc2cc(C)c(C)cc21	> 100 µM	>4	25 µM (≈ 16.8 µg/mL)							
CC(=O)OC[C@H](OC(C)=O)[C@H](OC(C)=O)[C@@H](Cn1c2nc(=O)n(C)c(=O)c-2nc2cc(C)c(C)cc21)OC(C)=O	> 100 µM	>2	12.5 µM (≈ 6.98 µg/mL)							
